In US9624229B2, “Pyrimidine-2-amine compounds and their use as inhibitors of JAK kinases” (Rigel Pharmaceuticals, Inc., priority 2008, dated 2017) one finds GI50 data, which are given here for 20 molecules.

Sequence of Ba/F3 V617F cells (O60674 whole entry V617F): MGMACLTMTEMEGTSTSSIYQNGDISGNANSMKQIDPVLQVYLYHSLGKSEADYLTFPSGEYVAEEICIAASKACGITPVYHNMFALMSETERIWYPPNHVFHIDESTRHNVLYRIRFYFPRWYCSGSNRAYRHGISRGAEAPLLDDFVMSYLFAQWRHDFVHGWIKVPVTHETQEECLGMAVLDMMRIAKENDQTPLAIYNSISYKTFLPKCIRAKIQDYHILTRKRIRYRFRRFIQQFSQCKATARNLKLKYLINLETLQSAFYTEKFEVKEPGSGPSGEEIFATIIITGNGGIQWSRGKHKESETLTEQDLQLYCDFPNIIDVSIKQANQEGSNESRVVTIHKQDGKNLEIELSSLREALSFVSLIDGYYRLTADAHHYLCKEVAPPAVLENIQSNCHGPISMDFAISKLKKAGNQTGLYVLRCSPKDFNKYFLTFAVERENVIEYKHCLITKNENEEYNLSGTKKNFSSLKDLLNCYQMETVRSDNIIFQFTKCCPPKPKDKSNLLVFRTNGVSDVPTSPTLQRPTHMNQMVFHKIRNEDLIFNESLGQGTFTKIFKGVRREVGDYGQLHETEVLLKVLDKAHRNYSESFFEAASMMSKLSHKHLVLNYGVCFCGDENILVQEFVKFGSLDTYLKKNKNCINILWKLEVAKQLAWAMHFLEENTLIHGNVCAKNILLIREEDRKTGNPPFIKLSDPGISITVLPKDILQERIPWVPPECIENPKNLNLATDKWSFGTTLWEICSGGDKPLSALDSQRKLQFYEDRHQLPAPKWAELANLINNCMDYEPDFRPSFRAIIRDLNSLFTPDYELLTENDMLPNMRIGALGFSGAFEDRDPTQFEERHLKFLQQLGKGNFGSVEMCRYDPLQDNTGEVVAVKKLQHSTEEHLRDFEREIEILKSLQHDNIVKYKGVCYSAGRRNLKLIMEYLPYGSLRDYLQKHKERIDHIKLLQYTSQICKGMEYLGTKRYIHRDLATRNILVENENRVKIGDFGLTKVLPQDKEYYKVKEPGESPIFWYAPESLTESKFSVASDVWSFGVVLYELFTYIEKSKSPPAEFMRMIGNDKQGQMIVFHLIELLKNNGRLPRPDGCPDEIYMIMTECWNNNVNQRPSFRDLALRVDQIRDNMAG

One assay has as its target Ba/F3 V617F cells (Homo sapiens, UniProt O60674, V617F, cells depend on it). Briefly: Proliferation assay (Cell Titer-Glo, 72 h) utilizing Ba/F3 V617F cells. The class given is cell-based, mouse. The conditions noted are these: Ba/F3 V617F cells, proliferation, level of activity given as class symbol, read-out: IC50 (the source's name). In short, it runs like this: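 Readout is CellTiter-Glo luminescence after 72 h at 37 °C, giving IC50. Cells: Ba/F3 V617F, 1×10^5 cells/mL in RPMI with 10% FBS, treated in duplicate with 3-fold dilution series made from 5 mM DMSO stock, 1:250 in 5% FBS medium, added at 2×.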
For orientation: ATP-based viability assays read luminescence as a measure of living cells.
Consider `Cc1cc(Nc2nccc(-c3ccc4c(c3)OC(C)(C)C(=O)N4)n2)ccc1N1C[C@@H]2C[C@H]1CN2S(C)(=O)=O` [compound 241, 4-(2,2-dimethyl-3-oxo-3,4-dihydro-2H-benzo[b][1,4]oxazin-7-yl)-N-(3-methyl-4-((1S,4S)-5-methylsulfonyl-2,5-diazabicyclo[2.2.1]heptan-2-yl)phenyl)pyrimidin-2-amine], for which the GI50 was below 1 µM.

Take `Cc1cc(Nc2nccc(-c3ccc(NCCC(C)(C)C)nc3)n2)ccc1N1C[C@@H]2C[C@H]1CN2C` [compound 218, 4-(6-(3,3-dimethylbutyl)aminopyridin-3-yl)-N-(3-methyl-4-((1S,4S)-5-methyl-2,5-diazabicyclo[2.2.1]heptan-2-yl)phenyl)pyrimidin-2-amine]: the GI50 is below 1 µM.

In the case of `Cc1cc(Nc2nccc(-c3ccc4c(c3)OC(C)(C)C(=O)N4)n2)ccc1N1C[C@@H]2C[C@H]1CN2C` [compound 240, 4-(2,2-dimethyl-3-oxo-3,4-dihydro-2H-benzo[b][1,4]oxazin-7-yl)-N-(3-methyl-4-((1S,4S)-5-methyl-2,5-diazabicyclo[2.2.1]heptan-2-yl)phenyl)pyrimidin-2-amine], the GI50 is below 1 µM.

Consider `Cc1cc(Nc2nccc(-c3ccc(N4CCOCC4)nc3)n2)ccc1N1C[C@@H]2C[C@H]1CN2CC(C)C` [compound 205, 4-(6-(morpholin-4-yl)pyridin-3-yl)-N-(3-methyl-4-((1S,4S)-5-isobutyl-2,5-diazabicyclo[2.2.1]heptan-2-yl)phenyl)pyrimidin-2-amine], for which the GI50 was below 1 µM.

As for `Cc1cc(Nc2nccc(-c3ccc4c(c3)SCC(=O)N4)n2)ccc1N1CCN2C(C1)[C@H]1CC[C@@H]2C1` (stereo partly drawn) [compound 279, 4-(3-oxo-3,4-dihydro-2H-benzo[b][1,4]thiazin-7-yl)-N-(3-methyl-4-((6R,9S)-6,9-methanooctahydro-1H-pyrido[1,2-a]pyrazin-2-yl)phenyl)pyrimidin-2-amine], the GI50 is below 1 µM.

The same assay, now with this note: Ba/F3 V617F cells, proliferation, level of activity to inhibit JAK2, read-out: IC50 (the source's name).
Take `CN1C[C@@H]2C[C@H]1CN2c1ccc(Nc2nccc(-c3ccnc(N4CCOCC4)c3F)n2)cc1F` [compound 39, 4-(3-fluoro-2-(morpholin-4-yl)pyridin-4-yl)-N-(3-fluoro-4-((1S,4S)-5-methyl-2,5-diazabicyclo[2.2.1]heptan-2-yl)phenyl)pyrimidin-2-amine]: the GI50 was in the range of 1 to 10 µM.

For `CN1C[C@@H]2C[C@H]1CN2c1ccc(Nc2nccc(-c3ccc(C(=O)Nc4ccccn4)cc3)n2)cc1F` [compound 133, 4-(4-((pyridin-2-yl)aminocarbonyl)phenyl)-N-(3-fluoro-4-((1S,4S)-5-methyl-2,5-diazabicyclo[2.2.1]heptan-2-yl)phenyl)pyrimidin-2-amine], the GI50 fell in the range of 1 to 10 µM.

`Cc1cc(Nc2nccc(-c3cnc(N4CCOCC4)c(C)c3)n2)ccc1N1C[C@@H]2C[C@H]1CN2C` [compound 60, 4-(5-methyl-6-(morpholin-4-yl)pyridin-3-yl)-N-(3-methyl-4-((1S,4S)-5-methyl-2,5-diazabicyclo[2.2.1]heptan-2-yl)phenyl)pyrimidin-2-amine]: the GI50 was below 1 µM.

As to `CCCNc1ncc(-c2ccnc(Nc3ccc(N4C[C@@H]5C[C@H]4CN5C)c(F)c3)n2)cn1` [compound 93, 4-(2-(propyl)aminopyrimidin-5-yl)-N-(3-fluoro-4-((1S,4S)-5-methyl-2,5-diazabicyclo[2.2.1]heptan-2-yl)phenyl)pyrimidin-2-amine], the GI50 is below 1 µM.

Take `CCNC(=O)N1C[C@@H]2C[C@H]1CN2c1ccc(Nc2nccc(-c3ccc(N4CCOCC4)nc3)n2)cc1C` [compound 26, 4-(6-(morpholin-4-yl)pyridin-3-yl)-N-(3-methyl-4-((1S,4S)-5-((ethylamino)carbonyl)-2,5-diazabicyclo[2.2.1]heptan-2-yl)phenyl)pyrimidin-2-amine]: the GI50 was below 1 µM.

As for `Cc1cc(Nc2nccc(-c3ccc(N4CCOCC4)nc3)n2)ccc1N1C[C@@H]2C[C@H]1CN2CC(F)(F)F` [compound 36, 4-(6-(morpholin-4-yl)pyridin-3-yl)-N-(3-methyl-4-((1S,4S)-5-(2,2,2-trifluoroethyl)-2,5-diazabicyclo[2.2.1]heptan-2-yl)phenyl)pyrimidin-2-amine], the GI50 fell in the range of 1 to 10 µM.

As for `CN1C[C@@H]2C[C@H]1CN2c1ccc(Nc2nccc(-c3cc[nH]c3)n2)cc1` [compound 170, 4-(1H-pyrrol-3-yl)-N-(4-((1S,4S)-5-methyl-2,5-diazabicyclo[2.2.1]heptan-2-yl)phenyl)pyrimidin-2-amine], the GI50 is 1 to 10 µM.

In the case of `Cc1cc(Nc2nccc(-c3ccc(C(C)(C)C)cc3)n2)ccc1N1C[C@@H]2C[C@H]1CN2C` [compound 46, 4-(4-(1,1-dimethylethyl)phenyl)-N-(3-methyl-4-((1S,4S)-5-methyl-2,5-diazabicyclo[2.2.1]heptan-2-yl)phenyl)pyrimidin-2-amine], the GI50 was below 1 µM.

For `Cc1cc(Nc2nccc(-c3ccc(C(=O)Nc4ccccn4)cc3)n2)ccc1N1CCN2CCC1CC2` [compound 161, 4-(4-((pyridin-2-yl)aminocarbonyl)phenyl)-N-(3-methyl-4-(1,4-diazabicyclo[3.2.2]nonan-4-yl)phenyl)pyrimidin-2-amine], the GI50 is below 1 µM.

Turning to `CN1C[C@@H]2C[C@H]1CN2c1ccc(Nc2nccc(-c3cnc4c(c3)OC(C)(C)C(=O)N4)n2)cc1F` [compound 19, 4-(2,2-dimethyl-3-oxo-3,4-dihydro-2H-pyrido[3,2-b][1,4]oxazin-7-yl)-N-(3-fluoro-4-((1S,4S)-5-methyl-2,5-diazabicyclo[2.2.1]heptan-2-yl)phenyl)pyrimidin-2-amine], the GI50 is below 1 µM.

As for `CN1C[C@@H]2C[C@H]1CN2c1ccc(Nc2nccc(-c3cnc(N4CCOCC4)nc3)n2)cc1F` [compound 43, 4-(2-(morpholin-4-yl)pyrimidin-5-yl)-N-(3-fluoro-4-((1S,4S)-5-methyl-2,5-diazabicyclo[2.2.1]heptan-2-yl)phenyl)pyrimidin-2-amine], the GI50 was below 1 µM.

Consider `Cc1cc(Nc2nccc(-c3ccc(NCCNS(=O)(=O)C4CC4)nc3)n2)ccc1N1C[C@@H]2C[C@H]1CN2C` [compound 99, 4-(6-((2-(cyclopropylsulfonyl)aminoethyl)-amino)pyridin-3-yl)-N-(3-methyl-4-((1S,4S)-5-methyl-2,5-diazabicyclo[2.2.1]heptan-2-yl)phenyl)pyrimidin-2-amine], for which the GI50 lay in the range of 1 to 10 µM.

With `CCCNc1ncc(-c2ccnc(Nc3ccc(N4C[C@@H]5C[C@H]4CN5C)c(C)c3)n2)cn1` [compound 92, 4-(2-(propyl)aminopyrimidin-5-yl)-N-(3-methyl-4-((1S,4S)-5-methyl-2,5-diazabicyclo[2.2.1]heptan-2-yl)phenyl)pyrimidin-2-amine], the GI50 was below 1 µM.

The same assay, now with this note: inhibition of JAK2 activity, proliferation of Ba/F3 V617F cells, read-out: IC50 (the source's name).
`Cc1cc(Nc2nccc(-c3ccc4c(ccn4-c4ccncc4)c3)n2)cnc1N1C[C@@H]2C[C@H]1CN2C` [compound 236, 4-(1-(pyridin-4-yl)-1H-indol-5-yl)-N-(5-methyl-6-((1S,4S)-5-methyl-2,5-diazabicyclo[2.2.1]heptan-2-yl)pyridin-3-yl)pyrimidin-2-amine]: the GI50 is below 1 µM.

`Cc1cc(-c2ccnc(Nc3ccc(N4C[C@@H]5C[C@H]4CN5C)nc3)n2)cnc1N1CCOCC1` [compound 58, 4-(5-methyl-6-(morpholin-4-yl)pyridin-3-yl)-N-(6-((1S,4S)-5-methyl-2,5-diazabicyclo[2.2.1]heptan-2-yl)pyridin-3-yl)pyrimidin-2-amine]: the GI50 was in the range of 1 to 10 µM.
